Assay results published in article PMC9543379, “Dihydroxy‐Acid Dehydratases From Pathogenic Bacteria: Emerging Drug Targets to Combat Antibiotic Resistance” (Chemistry (Weinheim an Der Bergstrasse, Germany), 2022).

How the values were obtained:
Format in all cases: biochemical
[1] = target: T1, CjDHAD (dihydroxy-acid dehydratase) (Campylobacter jejuni, UniProt Q9PJ98); assay: DNPH colorimetric endpoint assay with DHIV, 30-min pre-incubation
T1 construct: gene ilvD; hexa-histidine tag at the N-terminal, pET-28a

[2] = target: T2, SaDHAD (dihydroxy-acid dehydratase) (Staphylococcus aureus, UniProt Q2FWK7); assay: as above
T2 construct: gene ilvD; hexa-histidine tag at the N-terminal, pET-28a

[3] = target: T1, CjDHAD (dihydroxy-acid dehydratase); assay: DNPH colorimetric endpoint assay with DHIV, no pre-incubation
[4] = target: T2, SaDHAD (dihydroxy-acid dehydratase); assay: as above

T2 sequence (Q2FWK7 whole entry): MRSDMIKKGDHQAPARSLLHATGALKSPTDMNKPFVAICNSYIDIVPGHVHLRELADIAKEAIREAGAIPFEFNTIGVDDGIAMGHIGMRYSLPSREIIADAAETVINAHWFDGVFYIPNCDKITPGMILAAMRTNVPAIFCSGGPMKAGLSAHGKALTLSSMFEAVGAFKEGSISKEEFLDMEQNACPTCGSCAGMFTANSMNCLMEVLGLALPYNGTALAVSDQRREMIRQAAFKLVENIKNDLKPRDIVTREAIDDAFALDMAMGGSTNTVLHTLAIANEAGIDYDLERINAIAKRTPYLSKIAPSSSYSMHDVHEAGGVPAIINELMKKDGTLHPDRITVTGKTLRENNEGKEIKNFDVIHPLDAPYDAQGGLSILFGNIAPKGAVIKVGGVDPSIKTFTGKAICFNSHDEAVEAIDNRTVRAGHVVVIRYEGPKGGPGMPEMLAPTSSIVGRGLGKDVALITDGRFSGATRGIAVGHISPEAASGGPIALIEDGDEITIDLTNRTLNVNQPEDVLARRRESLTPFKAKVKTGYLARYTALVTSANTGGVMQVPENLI
T1 sequence (Q9PJ98 whole entry): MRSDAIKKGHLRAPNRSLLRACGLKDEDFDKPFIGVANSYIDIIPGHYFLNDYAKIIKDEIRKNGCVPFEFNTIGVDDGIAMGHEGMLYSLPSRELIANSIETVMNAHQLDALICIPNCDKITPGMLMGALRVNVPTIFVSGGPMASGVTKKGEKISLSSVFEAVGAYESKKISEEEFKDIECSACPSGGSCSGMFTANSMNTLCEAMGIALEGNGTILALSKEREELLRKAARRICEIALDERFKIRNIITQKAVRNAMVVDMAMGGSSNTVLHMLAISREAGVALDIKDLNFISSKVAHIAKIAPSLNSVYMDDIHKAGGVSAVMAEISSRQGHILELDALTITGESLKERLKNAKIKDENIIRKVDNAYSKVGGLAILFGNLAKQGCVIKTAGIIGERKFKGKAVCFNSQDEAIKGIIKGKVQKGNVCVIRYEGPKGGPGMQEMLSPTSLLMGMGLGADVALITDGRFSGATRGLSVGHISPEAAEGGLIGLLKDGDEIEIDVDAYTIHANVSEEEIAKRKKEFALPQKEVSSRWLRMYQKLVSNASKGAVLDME

Row | Structure (SMILES) | Ki [1] [µM] | Ki [2] [µM] | Ki [3] [µM] | Ki [4] [µM]
1 | CC(C)N(O)C(=O)C(=O)O [IpOHA] | 32.9 | 7.8 | – | –
2 | CC(C)=C1CC[C@]23CO[C@H](C2)[C@@](O)(C(=O)O)CC[C@@H]13 [aspterric acid] | – | – | 35.1 | 51.6
